In US9981997B2, “Chemical reagents for attaching affinity molecules on surfaces” (ARIZONA BOARD OF REGENTS ON BEHALF OF ARIZONA STATE …, priority 2013, dated 2018):
“And” between values parts separate entries of the source, which are not always exact repeats. Equal entries are not always repeated.

Assays:
[1] = AFM force measurement: non-specific interaction with bare mica; assay type: binding; settings: bare mica substrate
Excerpt: (§1) Non-specific interactions between functionalized AFM tips with both bare and bovine serum albumin (BSA) immobilized mica substrates were examined. The functionalized AFM tips generally formed featureless force-distance curves on these surfaces. Only 6.1% of collected curves show unbinding ruptures from the nonspecific TBA-BSA interaction (median force 14.4 pN) and 5.6% from the nonspecific RGD-BSA interaction (median force 15.3 pN) around the expected distance, respectively. The functionalized tips interacted with the bare mica surfaces with even lower statistics and smaller unbinding forces.
(§2) An Agilent AFM 5500 (with inverted light microscope) system was used for the AFM experiments. Both force measurement and recognition imaging were carried out in 1×PBS buffer (pH 7.4). For force measurements, Veeco probes (Bicker, SiN tips) were used, having a force constant 0.05 N/m and a gold back coating, and the loading rate was 25000 pN/s.
(§3) Topography images, recognition images and force spectra were recorded using Agilent PicoView software. The force-distance curves were analyzed in PicoView, and the corresponding unbinding forces were plotted in the form of histograms and fitted into the Gaussian function using MathWorks-MATLAB.

[2] = target: T1, human α-thrombin (Homo sapiens, UniProt P00734); test: AFM force measurement: unbinding of tip-tethered affinity molecule from thrombin immobilized on mica; assay type: binding
T1 construct: protein cognates human α-thrombin and human α5β1-integrin immobilized on mica surfaces; purchased Abeam (so in the source)
Excerpt: (§4) The attachment chemistry was validated using the functionalized SiN tips to measure forces of affinity molecules unbinding from their respective protein cognates. The protein sample was immobilized on APS-modified mica substrate using glutaraldehyde as a crosslinker (for procedure, see Wang, et al. Biophys. J. 2002, 83, 3619-3625). Initially, about 1000 force-distance curves were collected from each of measurement experiments with either D-1b against thrombin or P-1b against integrin α5β1. The solid lines in Panel A and D of FIG. 14 show exemplary retracting force-distance curves used for data analysis, which accounts for more than one fourth of the collections. The selection was based on an assumption that a rupture directly related to unbinding of an affinity molecule from its protein cognate is likely to take place around the distance corresponding to the stretched length of a PEG linker (˜13.5 nm in this instance). A distance histogram was created from each data set (Panel B and E of FIG. 14). […] Ratios of the rupture events between these two regions were 1:1.2 for the TBA tip against the thrombin protein and 1:1.3 for the RGD tip against the integrin protein respectively. After finishing the initial measurements, a thrombin or integrin solution was injected to the flow cell accordingly, and then another set of force curves were collected to determine the specificity of unbinding (see, for example, Lee, et al. Micron 2007, 38, 446-461). A disappearance of the specific unbinding ruptures from the force-distance curves was anticipated because the interactions of the affinity molecule tethered to the tip with its cognates on the substrate were blocked by protein from the solution. In fact, force-distance curves were obtained appearing like the dotted lines in Panel A and D of FIG. 14. Overall, the ruptures around the longer distances were reduced to a great extent and those around the shorter distances remained (Panel C and F of FIG. 14) in comparison with those prior to blocking. The rupture ratios between these two regions were changed to 12.3:1 for the TBA tip against the thrombin modified surface and 12:1 for the RGD tip against the integrin modified surface.
(§5) AFM tips (a batch of four or five) were first immersed in ethanol for five minutes, dried with ultrapure argon, and then treated with ultraviolet-ozone in a Boekel UV cleaner for 15 minutes and oxygen plasma (medium power) in a Harrick Plasma Cleaner for 2 minutes. These tips were immediately placed in a petri dish, to which an aqueous solution of compound 3 (50 mM) was added. After one hour, the tips were taken out, rinsed with water thrice, and dried gently with nitrogen. […]

[3] = target: bovine serum albumin (BSA) (Bos taurus, UniProt P02769); test: AFM force measurement: non-specific interaction with BSA immobilized mica; assay type: binding; settings: BSA on the substrate (non-specific control)
Chain of bovine serum albumin (BSA) (P02769 25-607): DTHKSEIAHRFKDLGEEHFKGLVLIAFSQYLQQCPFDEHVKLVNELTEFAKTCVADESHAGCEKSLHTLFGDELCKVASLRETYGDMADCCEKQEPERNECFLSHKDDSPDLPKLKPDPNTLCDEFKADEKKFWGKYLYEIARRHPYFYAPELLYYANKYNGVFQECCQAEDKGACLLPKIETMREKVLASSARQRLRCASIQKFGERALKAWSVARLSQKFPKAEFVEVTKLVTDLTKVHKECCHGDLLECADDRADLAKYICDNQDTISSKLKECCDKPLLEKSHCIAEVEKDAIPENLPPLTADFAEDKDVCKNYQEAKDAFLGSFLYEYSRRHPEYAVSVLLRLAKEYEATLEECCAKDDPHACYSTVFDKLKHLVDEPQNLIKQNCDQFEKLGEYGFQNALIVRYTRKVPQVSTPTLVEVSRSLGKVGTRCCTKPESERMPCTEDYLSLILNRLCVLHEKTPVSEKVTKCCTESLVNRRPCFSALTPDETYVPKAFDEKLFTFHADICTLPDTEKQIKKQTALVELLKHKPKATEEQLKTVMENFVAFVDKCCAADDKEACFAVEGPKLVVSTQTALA
Excerpt: as §1
Freshly cleaved mica sheets (1.5×2.0 cm^2) were immersed in an aqueous solution of APS (50 mM). After one hour, the mica sheets were taken out and rinsed thoroughly with water thrice. In a humid surrounding, an aqueous solution of glutaraldehyde (1 mM, 200 μL) was added on the APS mica sheet. After 10 minutes, the mica substrates were rinsed with water thrice, and then a solution of protein in a 1×PBS buffer (3 μL) was placed on it, incubated for one hour, and rinsed with the 1×PBS buffer thrice. In general, protein concentrations were made around 10 ng/μL for force measurements and 0.05 ng/μL for recognition imaging. It should be noted that integrin we used was a lyophilized product from a solution containing: 0.26 mg/ml α5β1, 20 mM Tris-HCl pH 7.5, 150 mM NaCl, 2 mM MgCl2, 0.2% Triton X-100, which was reconstituted by dissolving it in 1×PBS buffer.
as §2, §3

[4] = Stability of linkers, NMR monitoring and storage; assay type: physicochemical; settings: for stability by NMR monitoring: pure form and in chloroform, room temperature, at least two days; for storage stability: stored at −78° C. for one year
Excerpt: The molecular anchor (3) was synthesized simply by reacting APS (1) with 2-(cyclooct-2-yn-1-yloxy)acetic acid (2) in the presence of 1-ethyl-3-(3-dimethylaminopropyl)carbodiimide (EDC, FIG. 10). The desired product was separated as a white solid by silica gel chromatography with a yield of 60%. The molecular linker for RI (6a, FIG. 4) was synthesized starting from hexaethylene glycol. First, azido-(CH2CH2O)6-Ts (4, Ts=tosyl) was synthesized in a multi-gram scale (Loiseau, F. A. et al. J. Org. Chem. 2004, 69, 639-647; Svedhem, S.; et al. J. Org. Chem. 2001, 66, 4494-4503). The azido-(CH2CH2O)12—OH (5) was prepared in a 71% yield by reacting 4 with sodium hexaethylene glycoxide (3 times excess) that was generated in situ by treating hexaethylene glycol with sodium hydride. In presence of potassium t-butoxide, 5 reacted with divinyl sulfone to furnish the desired product 6a in a yield of 64%. In the same manner, the linker azido-(CH2CH2O)36-vinyl sulfone (6b) was synthesized by reacting azido-dPEG®—alcohol with divinyl sulfone in a yield close to that of 6a (FIG. 5). These two products were characterized with FTIR, NMR, and mass spectroscopy. Although vinyl sulfones may react with azides in presence of CuSO4 and sodium ascorbate, it was determined by NMR monitoring that 6a and 6b were stable both in its pure form and in chloroform at room temperature at least for two days. […] Maleimide is another reactive group that is functionally similar to vinyl sulfone in bioconjugation, but it may be less amenable to coexisting with azide because a [3+2]cycloaddition could spontaneously take place between these two functions in some circumstances. In addition, maleimide can undergo the thiol exchanges and ring hydrolysis (above pH 8), which may complicate outcomes of the conjugating reaction. Thus, vinyl sulfone was chosen as a Michael addition receptor of thiols in this attachment chemistry.

[5] = Ellipsometric thickness of monolayers on silicon oxide; assay type: physicochemical; settings: organic layer on silicon oxide, ellipsometry
Experimental: (§6) A silicon substrate (1×1 cm2) was cleaned thoroughly with ethanol, dried by nitrogen, and then treated with oxygen plasma for two minutes using Harrick Plasma Cleaner (medium power). APTES was deposited on the substrate using a vapor deposition method (H. Wang, et al. Biophys. J., 2002, 83, 3619-3625). The aminated substrate was immersed in a solution of compound 2 (1 mg/mL). NHS/EDC (1 mg each) and triethyl amine (5 μL) in dry dicholoromethane. After three hours, the substrates were taken out and rinsed with dry dichloromethane (twice) followed by ethanol (twice) and dried with argon.
(§7) A silicon substrate (1×1 cm2) was cleaned as described with respect to reactions 1-a nd 1-b, and then immersed in an aq. solution of silatrane derivative 3 (50 mM). After one hour, the substrates were taken out and rinsed five times with deionized water and dried with argon.
(§8) Contact angles were measured using Kruss EasyDrop. For the measurement, 2 μL of water droplets were deposited on different positions of a substrate placed on the sample plate and contact angles were measured in the video window of manufacturer's DSA software. Thicknesses of the monolayers were measured using Gaertner Scientific Corporation ellipsometer. For the thickness calculation, the refractive indices of both silicon oxide layers and organic layers were assumed to be 1.46 (T. Nguyen et al. J. Adhesion, 1995, 48, 169-194). Five different arbitrary positions on the substrate were chosen and the average value was taken. The thickness of the monolayer was determined by subtracting the silicon oxide thickness from the measured one.

[6] = Water contact angle of derivatized silicon oxide surfaces; assay type: physicochemical; settings: water on derivatized silicon oxide surface
Experimental: as §6, §7, §8

[7] = target: T2, human α5β1 integrin (Homo sapiens, UniProt P05556+P08648); test: AFM force measurement: unbinding of tip-tethered affinity molecule from integrin immobilized on mica; assay type: binding
T2 construct: purchased YO Proteins AB (Sweden)
T2 sequence (P08648 42-894 limits assumed): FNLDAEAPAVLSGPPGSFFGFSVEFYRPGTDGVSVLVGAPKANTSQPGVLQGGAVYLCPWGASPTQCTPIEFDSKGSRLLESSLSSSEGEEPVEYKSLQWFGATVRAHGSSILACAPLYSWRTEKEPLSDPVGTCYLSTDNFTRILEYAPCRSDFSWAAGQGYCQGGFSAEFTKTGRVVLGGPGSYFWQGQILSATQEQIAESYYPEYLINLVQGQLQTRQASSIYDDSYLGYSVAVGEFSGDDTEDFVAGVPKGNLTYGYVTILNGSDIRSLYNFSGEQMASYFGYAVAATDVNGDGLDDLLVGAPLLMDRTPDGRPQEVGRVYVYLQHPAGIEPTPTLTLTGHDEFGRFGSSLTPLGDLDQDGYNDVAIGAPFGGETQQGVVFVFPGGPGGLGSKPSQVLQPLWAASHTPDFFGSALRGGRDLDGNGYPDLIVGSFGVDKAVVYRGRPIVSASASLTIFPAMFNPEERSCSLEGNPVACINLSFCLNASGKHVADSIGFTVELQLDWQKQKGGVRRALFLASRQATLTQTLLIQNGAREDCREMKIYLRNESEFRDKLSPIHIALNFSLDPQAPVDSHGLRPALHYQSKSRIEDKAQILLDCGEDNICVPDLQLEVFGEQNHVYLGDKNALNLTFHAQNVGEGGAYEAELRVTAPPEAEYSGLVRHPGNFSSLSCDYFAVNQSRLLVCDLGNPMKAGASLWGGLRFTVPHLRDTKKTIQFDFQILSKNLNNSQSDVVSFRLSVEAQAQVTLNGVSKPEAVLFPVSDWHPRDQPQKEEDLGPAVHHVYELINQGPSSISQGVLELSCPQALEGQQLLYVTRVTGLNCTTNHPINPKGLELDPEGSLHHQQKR
T2 sequence (P08648 895-1049 partner limits assumed): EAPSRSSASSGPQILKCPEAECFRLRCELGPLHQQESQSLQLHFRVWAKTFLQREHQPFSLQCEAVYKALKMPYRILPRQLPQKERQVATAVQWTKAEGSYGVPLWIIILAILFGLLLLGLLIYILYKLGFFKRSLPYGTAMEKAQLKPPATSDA
T2 sequence (P05556 21-798): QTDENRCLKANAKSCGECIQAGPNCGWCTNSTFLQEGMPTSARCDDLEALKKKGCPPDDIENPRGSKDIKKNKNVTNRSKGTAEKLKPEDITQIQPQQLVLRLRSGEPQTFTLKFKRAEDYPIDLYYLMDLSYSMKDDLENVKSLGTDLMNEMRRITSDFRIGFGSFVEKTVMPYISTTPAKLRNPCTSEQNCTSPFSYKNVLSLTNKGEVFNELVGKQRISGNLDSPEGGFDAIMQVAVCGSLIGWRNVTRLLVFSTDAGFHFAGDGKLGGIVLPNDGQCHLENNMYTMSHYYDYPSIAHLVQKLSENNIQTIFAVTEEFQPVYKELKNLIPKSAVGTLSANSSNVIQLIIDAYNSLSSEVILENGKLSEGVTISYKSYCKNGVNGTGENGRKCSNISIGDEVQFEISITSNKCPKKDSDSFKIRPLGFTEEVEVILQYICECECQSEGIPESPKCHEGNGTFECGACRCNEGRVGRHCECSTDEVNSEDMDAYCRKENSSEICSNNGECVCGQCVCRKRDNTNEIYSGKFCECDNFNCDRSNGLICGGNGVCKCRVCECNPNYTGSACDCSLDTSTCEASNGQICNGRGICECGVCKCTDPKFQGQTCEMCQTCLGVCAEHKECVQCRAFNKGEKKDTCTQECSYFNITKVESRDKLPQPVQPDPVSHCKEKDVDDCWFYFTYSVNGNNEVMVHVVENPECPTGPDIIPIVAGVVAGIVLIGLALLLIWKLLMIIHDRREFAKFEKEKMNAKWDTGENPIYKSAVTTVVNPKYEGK
Excerpt: as §4, §5

[8] = tip blocked with thrombin solution, thrombin on mica
[9] = tip blocked with integrin solution, integrin on mica

In the case of 5′-GGTTGGTGTGGTTGG [TBA], the “Unbinding events (%)” value [1] is reported as 3.0%, the “Unbinding force (pN)” value [1] is reported as 6.9 ± 3.8 pN and the “Unbinding force (pN)” value ([2]; functionalized SiN tip against thrombin on mica, Gaussian fit of force histogram, loading rate 25000 pN/s) is reported as 80.2 ± 34.5 pN. The “Unbinding events (%)” value ([2]; functionalized SiN tip against thrombin on mica, ruptures around the specific unbinding distance over total force curves) was 26.5%, the “Unbinding events (%)” value [2, 8] was 7.0% and the “Unbinding force (pN)” value [2, 8] was 15.6 ± 12.9 pN. The “Unbinding events (%)” value [3] was 6.1% and the “Unbinding force (pN)” value [3] was 14.4 pN and 14.4 ± 9.4 pN.
With `C=CS(=O)(=O)CCOCCOCCOCCOCCOCCOCCOCCOCCOCCOCCOCCOCCN=[N+]=[N-]` [6a, 1-Azido-35-(2-(vinylsulfonyl)ethoxy)-3n33^3-undecaoxapentatriacontane] the “stability by NMR monitoring” value [4] was “stable” and the storage stability [4] was “no degradation has been observed”.
For `C=CS(=O)(=O)CCOCCOCCOCCOCCOCCOCCOCCOCCOCCOCCOCCOCCOCCOCCOCCOCCOCCOCCOCCOCCOCCOCCOCCOCCOCCOCCOCCOCCOCCOCCOCCOCCOCCOCCOCCOCCN=[N+]=[N-]` [6b, 1-Azido-35-(2-(vinylsulfonyl)ethoxy)-3n105^3-pentatricontaoxaheptahectane], the “stability by NMR monitoring” value [4] was “stable” and the storage stability [4] was “no degradation has been observed”.
With `CCO[Si](CCCN)(OCC)OCC` [APTES, (3-Arninopropyl)triethoxysilane] the “Thickness (Å)” value [5] was “about 7.3 Å” and the “Contact Angle (°)” value [6] was about 46 °.
In the case of `O=C(O)COC1C#CCCCCC1` (centres unmarked) [compound 2, 2-(cyclooct-2-yn-1-yloxy)acetic acid], the “Thickness (Å)” value [5] is reported as about 15.9 Å and the “Contact Angle (°)” value [6] is reported as 76 °.
For `O=C(COC1C#CCCCCC1)NCCC[Si-]123OCC[N+]1(CCO2)CCO3` (centres unmarked) [compound 3, N-(3-(silatranyl)propyl)-2-(cyclooct-2-yn-1-yloxy)acetamide], the “Thickness (Å)” value [5] was 15.3 Å and the “Contact Angle (°)” value [6] was about 78 °.
With cyclo(RGDfC) the “Unbinding events (%)” value [1] was 2.5%, the “Unbinding force (pN)” value [1] was 6.7 ± 4.0 pN and the “Unbinding events (%)” value ([7]; functionalized SiN tip against integrin on mica) was 29.4%. For the same molecule, the “Unbinding force (pN)” value ([7]; functionalized SiN tip against integrin on mica, Gaussian fit, loading rate 25000 pN/s) was 48.0 ± 27.8 pN, the “Unbinding events (%)” value [7, 9] was 6.7% and the “Unbinding force (pN)” value [7, 9] was 11.1 ± 10.7 pN. For the same molecule, the “Unbinding events (%)” value [3] was 5.6% and the “Unbinding force (pN)” value [3] was 15.3 pN and 15.3 ± 14.4 pN.
